Experimental data from ChEMBL document CHEMBL1201862, “PubChem BioAssay data set” (2004).
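Five compound concentrations were applied to cells in 96-well plates for 48 hours; endpoints were derived by simple linear interpolation of the resulting dose-response curve. GI50: concentration for 50% inhibition of growth.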 Active and inactive are the calls of the source. Cut-off read from the data, not from the text of the source: active = GI50 up to about 1.1 µM and inactive = higher.

Tests used:
Assay in all cases: inhibition of tumour cell growth, NCI panel, 48 h
[1] = tested on: Hs-578T
[2] = tested on: KM12
[3] = tested on: EKVX
[4] = tested on: UACC-257
[5] = tested on: IGROV-1
[6] = tested on: HCT-116
[7] = tested on: 786-0
[8] = tested on: SF-539
[9] = tested on: T47D
[10] = tested on: HL-60
[11] = tested on: U-251
[12] = tested on: HOP-62
[13] = tested on: OVCAR-4
[14] = tested on: M14
[15] = tested on: UO-31
[16] = tested on: LOX IMVI
[17] = tested on: HCT-15
[18] = tested on: SR
[19] = tested on: SW-620
[20] = tested on: TK-10
[21] = tested on: SNB-19
[22] = tested on: SK-OV-3
[23] = tested on: HOP-92
[24] = tested on: NCI-H460
[25] = tested on: K562
[26] = tested on: HT-29
[27] = tested on: SK-MEL-2
[28] = tested on: CAKI-1
[29] = tested on: MDA-MB-435
[30] = tested on: OVCAR-8
[31] = tested on: HCC 2998
[32] = tested on: NCI/ADR-RES
[33] = tested on: A498
[34] = tested on: SK-MEL-28
[35] = tested on: MOLT-4
[36] = tested on: RXF 393
[37] = tested on: NCI-H226
[38] = tested on: UACC-62
[39] = tested on: CCRF-CEM
[40] = tested on: SK-MEL-5
[41] = tested on: DU-145
[42] = tested on: BT-549
[43] = tested on: COLO 205
[44] = tested on: NCI-H23
[45] = tested on: SF-268
[46] = tested on: RPMI-8226
[47] = tested on: ACHN
[48] = tested on: PC-3
[49] = tested on: MDA-MB-231
[50] = tested on: SF-295
[51] = tested on: MCF7
[52] = tested on: SNB-75
[53] = tested on: NCI-H522
[54] = tested on: OVCAR-5
[55] = tested on: SN12C
[56] = tested on: Malme-3M
[57] = tested on: A549
[58] = tested on: OVCAR-3

## CCNC(=S)Nc1c(C#N)c2n(c1C(=O)OCC)CCCCC2
[1]
  GI50: 35.3 µM (inactive)
[2]
  GI50: > 100 µM (inactive)
[3]
  GI50: > 100 µM (inactive)
[4]
  GI50: > 100 µM (inactive)
[5]
  GI50: > 100 µM (inactive)
[6]
  GI50: > 100 µM (inactive)
[7]
  GI50: 76.4 µM (inactive)
[8]
  GI50: 64.7 µM (inactive)
[9]
  GI50: > 100 µM (inactive)
[10]
  GI50: > 100 µM (inactive)
[11]
  GI50: > 100 µM (inactive)
[12]
  GI50: 35.2 µM (inactive)
[13]
  GI50: > 100 µM (inactive)
[14]
  GI50: > 100 µM (inactive)
[15]
  GI50: > 100 µM (inactive)
[16]
  GI50: > 100 µM (inactive)
[17]
  GI50: > 100 µM
[18]
  GI50: > 100 µM (inactive)
[19]
  GI50: > 100 µM (inactive)
[20]
  GI50: > 100 µM (inactive)
[21]
  GI50: > 100 µM (inactive)
[22]
  GI50: > 100 µM (inactive)
[23]
  GI50: 42.3 µM (inactive)
[24]
  GI50: > 100 µM (inactive)
[25]
  GI50: > 100 µM (inactive)
[26]
  GI50: > 100 µM (inactive)
[27]
  GI50: > 100 µM (inactive)
[28]
  GI50: > 100 µM (inactive)
[29]
  GI50: > 100 µM (inactive)
[30]
  GI50: > 100 µM (inactive)
[31]
  GI50: > 100 µM (inactive)
[32]
  GI50: > 100 µM (inactive)
[33]
  GI50: > 100 µM (inactive)
[34]
  GI50: > 100 µM (inactive)
[35]
  GI50: > 100 µM (inactive)
[36]
  GI50: 33.1 µM (inactive)
[37]
  GI50: > 100 µM (inactive)
[38]
  GI50: > 100 µM (inactive)
[39]
  GI50: > 100 µM (inactive)
[40]
  GI50: > 100 µM (inactive)
[41]
  GI50: > 100 µM (inactive)
[42]
  GI50: 30.9 µM (inactive)
[43]
  GI50: > 100 µM (inactive)
[44]
  GI50: 69 µM (inactive)
[45]
  GI50: 62.7 µM (inactive)
[46]
  GI50: 71.3 µM (inactive)
[47]
  GI50: > 100 µM (inactive)
[48]
  GI50: > 100 µM (inactive)
[49]
  GI50: > 100 µM (inactive)
[50]
  GI50: > 100 µM (inactive)
[51]
  GI50: > 100 µM (inactive)
[52]
  GI50: > 100 µM (inactive)

## COC(=O)C1=C(C)NC2(O)C=CC(=O)C3C(=O)N(c4ccccc4)C(=O)C132 (stereo unspecified)
[1]
  GI50: > 100 µM (inactive)
[2]
  GI50: > 100 µM (inactive)
[3]
  GI50: > 100 µM (inactive)
[4]
  GI50: 90.8 µM (inactive)
[5]
  GI50: > 100 µM (inactive)
[6]
  GI50: 73.6 µM (inactive)
[7]
  GI50: 98.2 µM (inactive)
[8]
  GI50: > 100 µM (inactive)
[9]
  GI50: 36.8 µM (inactive)
[10]
  GI50: 63.8 µM (inactive)
[11]
  GI50: > 100 µM (inactive)
[12]
  GI50: > 100 µM (inactive)
[53]
  GI50: 32.5 µM (inactive)
[13]
  GI50: > 100 µM (inactive)
[14]
  GI50: 43.1 µM (inactive)
[15]
  GI50: > 100 µM (inactive)
[16]
  GI50: 67.3 µM (inactive)
[17]
  GI50: 63 µM
[54]
  GI50: 61.2 µM (inactive)
[18]
  GI50: 76.4 µM (inactive)
[19]
  GI50: 56.5 µM (inactive)
[20]
  GI50: > 100 µM (inactive)
[21]
  GI50: > 100 µM (inactive)
[22]
  GI50: > 100 µM (inactive)
[23]
  GI50: 37.3 µM (inactive)
[24]
  GI50: > 100 µM (inactive)
[25]
  GI50: 48.2 µM (inactive)
[26]
  GI50: 23.3 µM (inactive)
[27]
  GI50: > 100 µM (inactive)
[55]
  GI50: > 100 µM (inactive)
[28]
  GI50: > 100 µM (inactive)
[29]
  GI50: 64.7 µM (inactive)
[30]
  GI50: > 100 µM (inactive)
[31]
  GI50: 98.2 µM (inactive)
[32]
  GI50: > 100 µM (inactive)
[56]
  GI50: 37.8 µM (inactive)
[57]
  GI50: > 100 µM (inactive)
[33]
  GI50: > 100 µM (inactive)
[34]
  GI50: 32.5 µM (inactive)
[35]
  GI50: 90.6 µM (inactive)
[36]
  GI50: 83.4 µM (inactive)
[37]
  GI50: > 100 µM (inactive)
[38]
  GI50: 97.1 µM (inactive)
[39]
  GI50: 35 µM (inactive)
[40]
  GI50: > 100 µM (inactive)
[41]
  GI50: > 100 µM (inactive)
[42]
  GI50: 64.1 µM (inactive)
[43]
  GI50: 36.5 µM (inactive)
[58]
  GI50: 66.1 µM (inactive)
[44]
  GI50: > 100 µM (inactive)
[45]
  GI50: > 100 µM (inactive)
[46]
  GI50: 36.2 µM (inactive)
[47]
  GI50: > 100 µM (inactive)
[48]
  GI50: > 100 µM (inactive)
[49]
  GI50: > 100 µM (inactive)
[50]
  GI50: > 100 µM (inactive)
[51]
  GI50: > 100 µM (inactive)
[52]
  GI50: > 100 µM (inactive)

## CC(=O)OC1CN2CCC1CC2 (stereo unspecified) [ACECLIDINE]
[1]
  GI50: > 100 µM (inactive)
[2]
  GI50: > 100 µM (inactive)
[3]
  GI50: > 100 µM (inactive)
[4]
  GI50: > 100 µM (inactive)
[5]
  GI50: > 100 µM (inactive)
[6]
  GI50: > 100 µM (inactive)
[7]
  GI50: > 100 µM (inactive)
[8]
  GI50: > 100 µM (inactive)
[9]
  GI50: > 100 µM (inactive)
[10]
  GI50: > 100 µM (inactive)
[11]
  GI50: > 100 µM (inactive)
[12]
  GI50: > 100 µM (inactive)
[53]
  GI50: > 100 µM (inactive)
[13]
  GI50: > 100 µM (inactive)
[14]
  GI50: > 100 µM (inactive)
[15]
  GI50: > 100 µM (inactive)
[16]
  GI50: > 100 µM (inactive)
[17]
  GI50: > 100 µM
[54]
  GI50: > 100 µM (inactive)
[18]
  GI50: > 100 µM (inactive)
[19]
  GI50: > 100 µM (inactive)
[20]
  GI50: > 100 µM (inactive)
[21]
  GI50: > 100 µM (inactive)
[22]
  GI50: > 100 µM (inactive)
[23]
  GI50: > 100 µM (inactive)
[24]
  GI50: > 100 µM (inactive)
[25]
  GI50: > 100 µM (inactive)
[26]
  GI50: > 100 µM (inactive)
[55]
  GI50: > 100 µM (inactive)
[28]
  GI50: > 100 µM (inactive)
[29]
  GI50: > 100 µM (inactive)
[30]
  GI50: > 100 µM (inactive)
[31]
  GI50: > 100 µM (inactive)
[32]
  GI50: > 100 µM (inactive)
[56]
  GI50: > 100 µM (inactive)
[57]
  GI50: > 100 µM (inactive)
[33]
  GI50: 3.45 µM (inactive)
[34]
  GI50: > 100 µM (inactive)
[35]
  GI50: > 100 µM (inactive)
[36]
  GI50: > 100 µM (inactive)
[37]
  GI50: > 100 µM (inactive)
[38]
  GI50: > 100 µM (inactive)
[39]
  GI50: > 100 µM (inactive)
[40]
  GI50: > 100 µM (inactive)
[41]
  GI50: > 100 µM (inactive)
[42]
  GI50: > 100 µM (inactive)
[43]
  GI50: > 100 µM (inactive)
[58]
  GI50: > 100 µM (inactive)
[44]
  GI50: > 100 µM (inactive)
[45]
  GI50: > 100 µM (inactive)
[46]
  GI50: > 100 µM (inactive)
[47]
  GI50: > 100 µM (inactive)
[48]
  GI50: > 100 µM (inactive)
[49]
  GI50: > 100 µM (inactive)
[50]
  GI50: > 100 µM (inactive)
[51]
  GI50: > 100 µM (inactive)
